Reference: patent US11266604B2 (ALAYA (SHANGHAI) BIOSCIENCE CO., LTD, priority 2015, dated 2022)
“Also recorded” adds a separate entry of the source.

Legend:
Propionibacterium acnes = experiment: Antibacterial activity of nanoparticles versus free fatty acid in aqueous system (PBS); type: cell-based
Text: (§1) The present inventors further tested the antibacterial activity of the nanoparticles of the present invention and free fatty acids in an aqueous system.

H. pylori = experiment: as above; type: cell-based, Helicobacter pylori; conditions: same concentration (0.3% w/v)
Text: as §1

Compound	bactericidal effect on Propionibacterium acnes in aqueous system (Propionibacterium acnes)	bactericidal activity against H. pylori in aqueous system (H. pylori)
CCCCCCCCCCCC(=O)O [free lauric acid, lauric acid]	almost no bactericidal effect	–
CCCC/C=C\CCCCCCCC(=O)O [free myristoleic acid, myristoleic acid]	–	does not exhibit activities against H. pylori; also recorded: did not show bactericidal activity
